Patent publication US20260152480A1, “POLYCYCLIC COMPOUND AND USE THEREOF” (TYK MEDICINES , INC., priority 2022, published 2026)
Where two headings read alike, the source gives them in different places.

Legend:
[1] = system: Human pleural mesothelioma cells NCI-H226; test: Proliferation inhibition assay of human pleural mesothelioma cells NCI-H226 (CCK8); type: cell-based; settings: 72 h, 3 days incubation
Excerpt: Experimental Example 1 Cell Anti-Proliferation Test
Proliferation Inhibition Assay of Human Pleural Mesothelioma Cells NCI-H226 by YAP-TEAD Inhibitor Compounds
Experimental materials and equipment: Human pleural mesothelioma cells NCI-H226 were purchased from Nanjing Cobioer Biosciences CO., LTD. RPMI-1640 medium (Bio-Channel), DMSO (dimethyl sulfoxide), CCK8 (WST-8) cell analysis kit (Beyotime), 0.25% EDTA-Tripsin (trypsin solution), 1×PBS (phosphate buffer, PH7.2), 96-well plate (Corning), fetal bovine serum (FBS), 10,000 U/mL penicillin-G/streptomycin, high-speed cryo-centrifuge (EPPENDORF 5810R), enzyme-linked immunoassay (Tecan Spark).
• A) Tumor cells were cultured in RPMI-1640 (containing 10% FBS and 100 U/mL penicillin-G/streptomycin) at 37° C., 5% CO^2 and saturated humidity until 80-90% density. • B) Removed the culture medium from 10 cm Petri dishes; • C) Rinsed the cells once with 10 ml 1×PBS; • D) Added 4 ml 0.25% EDTA-Tripsin into 37° C., 5% CO^2 incubator for trypsin digestion for 5 minutes, transferred to 15 ml centrifuge tube, centrifuged at 200 g for 5 minutes, discarded the supernatant to get cell precipitate; • E) Resuspend with 4 ml DMEM medium, count and adjust to 10,000 cells/ml. • F) Added cell suspension to 96-well plate with 100 μL per well volume and incubate overnight at 37° C., 5% CO^2 incubator.
• A) Preparation of gradient dilution solution of tested compounds: the test compounds were configured into 1 mM reservoir solution. Then 1.5 μl of the reservoir solution was dissolved in 1.5 ml of DMSO-free culture solution, and then a 3-fold serial gradient dilution was performed with 0.1% DMSO culture solution for a total of 9 concentrations, and the concentrations of the compounds after dilution were as follows: • 333.33 nM, 111.11 nM, 37.03 nM, 12.35 nM, 4.15 nM, 1.37 nM, 0.46 nM, 0.15 nM • B) After thorough mixing, 100 μL of culture compound solution was taken separately to replace the culture solution in the cell culture plate, with 4 replicate wells for each concentration; • C) The cells were transferred to the incubator and incubated for 3 days.
• A) Removed the cell culture plate and added 10 μl of CCK-8 (WST-8) solution per well in the biosafety cabinet. • B) Placed the cell culture plate back into the incubator and continued incubation for 3 hours. • C) Determined the absorbance value by selecting 450 nm on a TECAN enzyme-linked immunoassay detector.
The cell viability (% Cell Viability) was calculated using the following formula.
[formula] • A (dosing): absorbance of wells with cells, CCK8 solution and drug solution • A (blank): absorbance of wells with medium and CCK8 solution but no cells • A (0 dosing): absorbance of wells with cells, CCK8 solution and no drug solution • Cell viability: Cell proliferation viability or cytotoxicity viability IC50 values were obtained by curve fitting with GraphPad Prism 8 software.

[2] = system: YAP-TEAD; test: Nano luciferase method to detect YAP-TEAD inhibitor activity (293T cells transfected with pGL3B-8×GTiiC-nLuc-CMV-fLuc); type: cell-based; settings: Homo sapiens, HEK-293T, transfected 293T cells, 48 hours incubation, read-out: Nano Luciferas detection (IC50)
Excerpt: Experimental Example 2 Nano Luciferase Method to Detect YAP-TEAD Inhibitor Activity
(1) Experimental materials and equipment: 293T cells were purchased from Nanjing Cobioer Biosciences CO., LTD. DMEM medium (high sugar, phenol red free, Bio-Channel), DMSO (dimethyl sulfoxide), Lipo6000™ transfection reagent (Beyotime), pGL3B-8×GTiiC-nLuc-CMV-fLuc plasmid, 0.25% EDTA Tripsin (trypsin solution), 1×PBS (phosphate buffer, PH7.2), 96-well white cell culture plate (PerkinElmer), Fetal Bovine Serum (FBS), 10,000 U/mL penicillin-G/streptomycin, High-speed cryo-centrifuge (EPPENDORF 5810R), 37° C. CO^2 incubator, Vi-Cell® cell counter, Envision microplate reader (PerkinElmer).
Resuscitated 293T cells were inoculated into 10 cm petri dishes and placed in a 5% CO^2 incubator at a constant temperature of 37° C. To ensure transfection efficiency, cells in the logarithmic phase (cell density of about 50%-70%) should be used.
One day before transfection, cells in logarithmic phase were digested with Trypsin-EDTA, the reaction was terminated by adding medium, and the cell suspension was made by blowing and mixing with a pipette.
The cell concentration was determined using Vi-cell and diluted to a suspension of 5*10^5 cells per milliliter. Once the cell suspension was prepared, it was gently mixed and 10 ml of liquid was added to a 10 cm petri dish. […] The cells were incubated in a 5% CO^2 incubator at 37° C. for 1 day.
Take two clean and sterile centrifuge tubes, added 750 μL of opti-MEM Medium without antibiotics and serum respectively, then added […] of plasmid (pGL3B-8×GTiiC-nLuc-CMV-fLuc) to one of the tubes and gently blown with a pipette for mixing; the other tube was added with Lipo6000 transfection reagent and gently blown with a pipette for mixing. After standing at room temperature for 5 minutes, the culture medium containing DNA was gently added to the culture medium containing Lipo6000 transfection reagent, mixed by gently inverting the centrifuge tube, and stood at room temperature for 5 minutes.
The above mixture was added evenly dropwise to a 10-cm petri dish and replaced with fresh complete medium after 6 h of incubation.
After 1 day of transfection, Trypsin EDTA was used to digest the cells, medium was added to terminate the reaction, and a cell suspension was made by blowing and mixing with a pipette.
Cell concentration was determined using Vi-cell, and diluted to a suspension of 20,000 cells per milliliter.
After the cell suspension was prepared, it was gently mixed and 100 μL was added to each well in a 96-well plate so that the density of cells to be measured was 2000 per well.
The inoculated cell culture plates were incubated in an incubator, and the compounds in concentration gradients were added after about 24 hours.
The 10 mM compound reservoir solution was diluted to 50 μM with culture medium, and 50 μM compound solution was added sequentially to the third column of the deep-well plate, and 216 μL of culture medium containing 0.5% DMSO to the fourth to eleventh columns.
Gradient dilution: 100 μL of solution was pipetted from the third column and added to the fourth column, after mixing; another 100 μL of solution was pipetted from the fourth column and added to the fifth column, and the operation was repeated until the eleventh column.
Using a multichannel pipette, 25 μL of compound solution was pipetted from the deep-well plate and added to the 96-well culture plate, and each compound was repeated four times on the 96-well plate. A concentration gradient with a maximum concentration of 10,000 nM, 1:3.16, was eventually formed on the 96-well plate.
The 96-well plate was incubated in a 5% CO^2 incubator at a constant temperature of 37° C. for 48 hours, then removed and equilibrated at room temperature for 10 minutes.
100 μL of detection reagent was added to each well and placed on a horizontal shaker at low speed for 10 minutes to fully lyse the cells. […]

[3] = reference compounds of WO2009081259A1

SMILES | IC50 [1] [nM] | IC50 [2] [nM] | IC50 [1, 3] [nM] | IC50 [2, 3] [nM]
C=CC(=O)N1CC=C(c2cccnc2Nc2ccc(S(F)(F)(F)(F)F)cc2)C1 [Compound T9] | ≤ 100 | ≤ 100 | – | –
C=CC(=O)N1CCC(c2cc(-c3ccccc3)cnc2Nc2ccc(C(F)(F)F)cc2)CC1 [Compound T56] | ≤ 100 | ≤ 100 | – | –
FC(F)(F)c1ccc(Oc2ncccc2C2CCNCC2)cc1 [Reference compound 6, reference compound] | – | – | > 5000 | > 5000
C=CC(=O)N1CCC(c2nc(C(F)(F)F)cnc2Nc2ccc(C(F)(F)F)cc2)CC1 [Compound T83] | ≤ 100 | ≤ 100 | – | –
C=CC(=O)N1CC(c2cccnc2Nc2ccc(S(F)(F)(F)(F)F)cc2)C1 [Compound T10] | ≤ 100 | ≤ 100 | – | –
C=C(F)C(=O)N1CCC(c2cccnc2Oc2ccc(C(F)(F)F)cc2)C(F)(F)C1 (centres unmarked) [Compound T81] | 100 to 1000 | 100 to 1000 | – | –
C=CC(=O)N1CC=C(c2cccnc2Nc2ccc(C)cc2)CC1 [Compound T12] | ≤ 100 | ≤ 100 | – | –
C=CC(=O)N1CCC(c2cc(-c3ccsc3)cnc2Nc2ccc(C(F)(F)F)cc2)CC1 [Compound T98] | 1000 to 5000 | 100 to 1000 | – | –
C=CC(=O)N1CCC(c2cc(OC)cnc2Oc2ccc(C(F)(F)F)cc2)CC1 [Compound T73] | 100 to 1000 | 100 to 1000 | – | –
C=CC(=O)N1CCC(c2cc(C(F)(F)F)cnc2Oc2ccc(C(F)(F)F)cc2)CC1 [Compound T39] | 100 to 1000 | 100 to 1000 | – | –
C=CC(=O)N1CCC(c2ccc(C(F)(F)F)nc2Nc2ccc(C(F)(F)F)cc2)CC1 [Compound T45] | 1000 to 5000 | 100 to 1000 | – | –
C=CC(=O)N1CCC(c2cc(C)cnc2Oc2ccc(C(F)(F)F)cc2)CC1 [Compound T44] | 100 to 1000 | 100 to 1000 | – | –
C=CC(=O)N1CCC(c2cccnc2N(C)c2ccc(C(F)(F)F)cc2)CC1 [Compound T63] | 100 to 1000 | 100 to 1000 | – | –
C=CC(=O)N1CCC(c2cccnc2Nc2ccc(C)cc2)CC1 [Compound T11] | ≤ 100 | ≤ 100 | – | –
C=CC(=O)N1CCC(c2cc(F)cnc2Oc2ccc(C(F)(F)F)cc2)CC1 [Compound T38] | 100 to 1000 | 100 to 1000 | – | –

Next, values leading:

IC50 [1] [nM] | IC50 [2] [nM] | IC50 [1, 3] [nM] | IC50 [2, 3] [nM] | SMILES
100 to 1000 | 100 to 1000 | – | – | C=CC(=O)N1CCC(c2cc(OC)cnc2Nc2ccc(C(F)(F)F)cc2)CC1 [Compound T34]
1000 to 5000 | 100 to 1000 | – | – | C=CC(=O)N1CCC(c2cc(-c3ccnn3C)cnc2Nc2ccc(C(F)(F)F)cc2)CC1 [Compound T60]
≤ 100 | ≤ 100 | – | – | C=CC(=O)N1CCC(c2c(Cl)ccnc2Nc2ccc(C(F)(F)F)cc2)CC1 [Compound T29]
≤ 100 | ≤ 100 | – | – | C=CC(=O)N1CC(c2nccnc2Nc2ccc(C(F)(F)F)cc2)C1 [Compound T20]
≤ 100 | ≤ 100 | – | – | C=CC(=O)N1CC=C(c2cccnc2Nc2ccc(C(F)(F)F)cc2)CC1 [Compound T2]
≤ 100 | ≤ 100 | – | – | C=CC(=O)N1CC=C(c2cccnc2Nc2ccc(C(F)(F)F)cc2)C1 [Compound T4]
≤ 100 | ≤ 100 | – | – | C=CC(=O)N1CCC(c2c(C)ccnc2Nc2ccc(C(F)(F)F)cc2)CC1 [Compound T23]
100 to 1000 | 100 to 1000 | – | – | C=CC(=O)N1CCC(c2ccnnc2Nc2ccc(C(F)(F)F)cc2)CC1 [Compound T42]
≤ 100 | ≤ 100 | – | – | C=CC(=O)N1CCC(c2cc(F)cnc2Nc2ccc(C(F)(F)F)cc2)CC1 [Compound T25]
≤ 100 | ≤ 100 | – | – | C=CC(=O)N1CCC(c2c(F)ccnc2Nc2ccc(C(F)(F)F)cc2)CC1 [Compound T26]
1000 to 5000 | 1000 to 5000 | – | – | CC#CC(=O)N1CCC(c2cccnc2Nc2ccc(C(F)(F)F)cc2)CC1 [Compound T50]
100 to 1000 | 100 to 1000 | – | – | C=CC(=O)N1CCC(c2cccnc2Nc2ccc(C(F)(F)F)cc2)C1 (centres unmarked) [Compound T3]
≤ 100 | ≤ 100 | – | – | C=CC(=O)N1CCC(c2ccc(C)nc2Nc2ccc(C(F)(F)F)cc2)CC1 [Compound T21]
≤ 100 | ≤ 100 | – | – | C=CC(=O)N1CCC(c2cc(Cl)cnc2Nc2ccc(C(F)(F)F)cc2)CC1 [Compound T28]
100 to 1000 | 100 to 1000 | – | – | C=CC(=O)N1CCN(c2cccnc2Nc2ccc(C(F)(F)F)cc2)CC1 [Compound T36]
≤ 100 | ≤ 100 | – | – | C=CC(=O)N1CC=C(c2nccnc2Nc2ccc(C(F)(F)F)cc2)CC1 [Compound T17]
1000 to 5000 | 100 to 1000 | – | – | C=CC(=O)N1CCC(c2cc(-c3cccnc3)cnc2Nc2ccc(C(F)(F)F)cc2)CC1 [Compound T96]
100 to 1000 | 100 to 1000 | – | – | C=CC(=O)N1CC(c2cccnc2Nc2ccc(C(F)(F)F)cc2)C1 [Compound T5]
1000 to 5000 | ≤ 100 | – | – | C#CC(=O)N1CCC(c2cccnc2Nc2ccc(C(F)(F)F)cc2)CC1 [Compound T49]
